Patent publication US20250313563A1, “GLYCOGEN SYNTHASE KINASE 3 INHIBITORS AND USES THEREOF” (The Broad Institute, Inc., priority 2022, published 2025)
Read-outs that look alike come from different tables or passages of the source.

How the values were obtained:
[1] = target: GSK3α (GST-full length GSK3α) (Homo sapiens (Human), UniProt P49840); experiment: GSK3α TR-FRET kinase assay; type: biochemical
Outline: (§1)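 Readout: anti-pSer641 Tb antibody/streptavidin-d2 signal after 60 min, expressed as 665/615 ratio and fitted versus log concentration for IC50. Enzyme: 1 nM GST-GSK3 (α or β), compound-preincubated 30 min. Conditions: pH 7.5 Tris buffer with MgCl2, DTT, BSA; ATP at 4 or 2 μM, or 1 mM; 100 min.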

[2] = target: GSK3b (GST-full length GSK3b) (Homo sapiens (Human), UniProt P49841); experiment: GSK3b TR-FRET kinase assay; type: biochemical
GSK3b (GST-full length GSK3b), sequence (P49841 whole entry): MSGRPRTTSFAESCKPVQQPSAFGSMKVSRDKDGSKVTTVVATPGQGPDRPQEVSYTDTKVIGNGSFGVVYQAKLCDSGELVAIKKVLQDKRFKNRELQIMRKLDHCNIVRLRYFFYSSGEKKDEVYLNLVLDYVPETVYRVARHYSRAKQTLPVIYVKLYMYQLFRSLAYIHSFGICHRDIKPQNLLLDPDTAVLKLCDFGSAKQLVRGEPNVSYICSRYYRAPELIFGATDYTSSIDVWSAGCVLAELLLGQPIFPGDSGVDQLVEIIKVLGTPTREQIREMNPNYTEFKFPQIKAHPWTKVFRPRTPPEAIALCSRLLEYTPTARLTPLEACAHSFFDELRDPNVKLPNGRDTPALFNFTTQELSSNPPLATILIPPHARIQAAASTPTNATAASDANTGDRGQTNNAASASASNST
Outline: as §1

[3] = 1 nM GSK3α, 4 μM ATP, 30 minute preincubation, read-out: GSK3-A TR-FRET BIOCHEMICAL (TR-FRET), IC50
[4] = 1 nM GSK3b, 2 μM ATP, 30 minute preincubation, read-out: GSK3-B TR-FRET BIOCHEMICAL (TR-FRET), IC50
[5] = read-out: GSK3-A (TR-FRET 1 mM ATP), GMean, IC50, 1 mM ATP, geometric mean
[6] = read-out: GSK3-B (TR-FRET 1 mM ATP), GMean, IC50, 1 mM ATP, geometric mean
[7] = 1 nM GSK3α, 4 μM ATP, 30 minute preincubation, Table 16, read-out: GSK3-A TR-FRET BIOCHEMICAL (TR-FRET)
[8] = 1 nM GSK3b, 2 μM ATP, 30 minute preincubation, Table 16, read-out: GSK3-B TR-FRET BIOCHEMICAL (TR-FRET)

GSK3α (GST-full length GSK3α), sequence (P49840 whole entry): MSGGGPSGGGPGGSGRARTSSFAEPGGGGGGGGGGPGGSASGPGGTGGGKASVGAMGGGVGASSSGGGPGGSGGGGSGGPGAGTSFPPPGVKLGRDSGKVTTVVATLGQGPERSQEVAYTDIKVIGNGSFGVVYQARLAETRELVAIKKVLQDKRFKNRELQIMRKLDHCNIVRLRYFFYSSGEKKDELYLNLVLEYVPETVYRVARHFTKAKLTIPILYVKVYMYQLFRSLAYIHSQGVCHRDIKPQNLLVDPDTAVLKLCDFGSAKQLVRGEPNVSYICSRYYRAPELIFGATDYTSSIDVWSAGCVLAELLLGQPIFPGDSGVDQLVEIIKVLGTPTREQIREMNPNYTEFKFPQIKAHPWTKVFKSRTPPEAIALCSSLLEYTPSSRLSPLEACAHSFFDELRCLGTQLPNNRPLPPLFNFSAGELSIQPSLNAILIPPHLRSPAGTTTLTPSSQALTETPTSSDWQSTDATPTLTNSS

| Structure (SMILES) | IC50 [1, 3] | IC50 [2, 4] | IC50 [1, 5] | IC50 [2, 6] | IC50 [1, 7] | IC50 [2, 8] |
| --- | --- | --- | --- | --- | --- | --- |
| CC1CCCC1C(=O)N1CC2(C1)CC1(CO2)C2=C(CC(C)(C)CC2=O)Nc2n[nH]cc21 (stereo not drawn) [Compound 947274] | ≤ 100 nM | 100 to 1000 nM |  |  |  |  |
| CC1(C)CC(=O)C2=C(C1)Nc1n[nH]cc1C21COC2(CN(C(=O)C(C)(F)F)C2)C1 (stereo not drawn) [Compound 947275] | ≤ 100 nM | ≤ 100 nM | 100 to 1000 nM | 100 to 1000 nM |  |  |
| CC1(C)CC(=O)C2=C(C1)Nc1n[nH]cc1C21COC2(CN(C(=O)C(C)(C)F)C2)C1 (stereo not drawn) [Compound 947276] | ≤ 100 nM | ≤ 100 nM |  |  |  |  |
| CC1(C)CC(=O)C2=C(C1)Nc1n[nH]cc1C21COC2(CN(C(=O)C3(F)CCCC3)C2)C1 (stereo not drawn) [Compound 947277] | ≤ 100 nM | ≤ 100 nM |  |  |  |  |
| CC1(C)CC(=O)C2=C(C1)Nc1n[nH]cc1C21COC2(CN(C(=O)CC3CC(F)(F)C3)C2)C1 (stereo not drawn) [Compound 947278] | ≤ 100 nM | ≤ 100 nM |  |  |  |  |
| CC1(C)CC(=O)C2=C(C1)Nc1n[nH]cc1C21COC2(CN(C(=O)C3(F)CCC3)C2)C1 (stereo not drawn) [Compound 947279] | ≤ 100 nM | ≤ 100 nM |  |  |  |  |
| CC1(C)CC(=O)C2=C(C1)Nc1n[nH]cc1C21COC2(CN(C(=O)C(F)(F)F)C2)C1 (stereo not drawn) [Compound 947280] | ≤ 100 nM | ≤ 100 nM |  |  |  |  |
| Cc1ccc(CC(=O)N2CC3(C2)CC2(CO3)C3=C(CC(C)(C)CC3=O)Nc3n[nH]cc32)cc1 (stereo not drawn) [Compound 947281] | ≤ 100 nM | ≤ 100 nM | 100 to 1000 nM | 100 to 1000 nM |  |  |
| CC1(C)CC(=O)C2=C(C1)Nc1n[nH]cc1C21COC2(CN(C(=O)C3CC(C)(C)C3)C2)C1 (stereo not drawn) [Compound 947282] | ≤ 100 nM | 100 to 1000 nM |  |  |  |  |
| CC1(C)CC(=O)C2=C(C1)Nc1n[nH]cc1C21COC2(CN(C(=O)c3cccc(F)c3)C2)C1 (stereo not drawn) [Compound 947283] | ≤ 100 nM | ≤ 100 nM |  |  |  |  |
| Cc1cccc(C(=O)N2CC3(C2)CC2(CO3)C3=C(CC(C)(C)CC3=O)Nc3n[nH]cc32)c1C (stereo not drawn) [Compound 947284] | ≤ 100 nM | 100 to 1000 nM |  |  |  |  |
| Cc1ccc(C)c(C(=O)N2CC3(C2)CC2(CO3)C3=C(CC(C)(C)CC3=O)Nc3n[nH]cc32)c1 (stereo not drawn) [Compound 947285] | ≤ 100 nM | 100 to 1000 nM |  |  |  |  |
| Cc1ccc(C(=O)N2CC3(C2)CC2(CO3)C3=C(CC(C)(C)CC3=O)Nc3n[nH]cc32)cc1C (stereo not drawn) [Compound 947286] | ≤ 100 nM | ≤ 100 nM |  |  |  |  |
| Cc1ccccc1C(=O)N1CC2(C1)CC1(CO2)C2=C(CC(C)(C)CC2=O)Nc2n[nH]cc21 (stereo not drawn) [Compound 947287] | ≤ 100 nM | 100 to 1000 nM |  |  |  |  |
| CC1(C)CC(=O)C2=C(C1)Nc1n[nH]cc1C21COC2(CN(C(=O)C3CCC3)C2)C1 (stereo not drawn) [Compound 947288] | ≤ 100 nM | ≤ 100 nM | 100 to 1000 nM | 100 to 1000 nM |  |  |
| CC1(C)CC(=O)C2=C(C1)Nc1n[nH]cc1C21COC2(CN(C(=O)c3ccccc3F)C2)C1 (stereo not drawn) [Compound 947289] | ≤ 100 nM | ≤ 100 nM |  |  |  |  |
| Cc1ccc(C(=O)N2CC3(C2)CC2(CO3)C3=C(CC(C)(C)CC3=O)Nc3n[nH]cc32)cc1 (stereo not drawn) [Compound 947290] | ≤ 100 nM | ≤ 100 nM |  |  |  |  |
| CC1(C)CC(=O)C2=C(C1)Nc1n[nH]cc1C21COC2(CN(C(=O)C3CCCCC3)C2)C1 (stereo not drawn) [Compound 947291] | ≤ 100 nM | 100 to 1000 nM |  |  |  |  |
| CC1(C)CC(=O)C2=C(C1)Nc1n[nH]cc1C21COC2(CN(C(=O)c3ccc(F)cc3)C2)C1 (stereo not drawn) [Compound 947292] | ≤ 100 nM | ≤ 100 nM |  |  |  |  |
| CC1(C)CC(=O)C2=C(C1)Nc1n[nH]cc1C21COC2(CN(C(=O)CC3CCCC3)C2)C1 (stereo not drawn) [Compound 947293] | ≤ 100 nM | ≤ 100 nM |  |  |  |  |
| Cc1ccc(C(=O)N2CC3(C2)CC2(CO3)C3=C(CC(C)(C)CC3=O)Nc3n[nH]cc32)c(C)c1 (stereo not drawn) [Compound 947294] | ≤ 100 nM | 100 to 1000 nM |  |  |  |  |
| Cc1ccccc1CC(=O)N1CC2(C1)CC1(CO2)C2=C(CC(C)(C)CC2=O)Nc2n[nH]cc21 (stereo not drawn) [Compound 947295] | ≤ 100 nM | ≤ 100 nM |  |  |  |  |
| Cc1cc(C)cc(C(=O)N2CC3(C2)CC2(CO3)C3=C(CC(C)(C)CC3=O)Nc3n[nH]cc32)c1 (stereo not drawn) [Compound 947296] | ≤ 100 nM | ≤ 100 nM |  |  |  |  |
| CC1(C)CC(=O)C2=C(C1)Nc1n[nH]cc1C21COC2(CN(C(=O)C3CC3)C2)C1 (stereo not drawn) [Compound 947297] | ≤ 100 nM | ≤ 100 nM |  |  |  |  |
| CC1(C)CC(=O)C2=C(C1)Nc1n[nH]cc1C21COC2(CN(C(=O)CC3CC3)C2)C1 (stereo not drawn) [Compound 947298] | ≤ 100 nM | ≤ 100 nM |  |  |  |  |

| Structure (SMILES) | IC50 [1, 3] | IC50 [2, 4] | IC50 [1, 5] | IC50 [2, 6] | IC50 [1, 7] | IC50 [2, 8] |
| --- | --- | --- | --- | --- | --- | --- |
| CC1(C)CC(=O)C2=C(C1)Nc1n[nH]cc1C21COC2(CN(C(=O)CC3CCC3)C2)C1 (stereo not drawn) [Compound 947299] | ≤ 100 nM | ≤ 100 nM |  |  |  |  |
| CCCC(=O)N1CC2(C1)CC1(CO2)C2=C(CC(C)(C)CC2=O)Nc2n[nH]cc21 (stereo not drawn) [Compound 947300] | ≤ 100 nM | ≤ 100 nM |  |  |  |  |
| CC(C)(C)CC(=O)N1CC2(C1)CC1(CO2)C2=C(CC(C)(C)CC2=O)Nc2n[nH]cc21 (stereo not drawn) [Compound 947301] | 100 to 1000 nM | 1000 to 5000 nM |  |  |  |  |
| CC(C)CC(=O)N1CC2(C1)CC1(CO2)C2=C(CC(C)(C)CC2=O)Nc2n[nH]cc21 (stereo not drawn) [Compound 947302] | ≤ 100 nM | ≤ 100 nM |  |  |  |  |
| CC1(C)CC(=O)C2=C(C1)Nc1n[nH]cc1C21COC2(CN(C(=O)C(C)(C)C)C2)C1 (stereo not drawn) [Compound 947303] | ≤ 100 nM | ≤ 100 nM |  |  |  |  |
| CC(C)C(=O)N1CC2(C1)CC1(CO2)C2=C(CC(C)(C)CC2=O)Nc2n[nH]cc21 (stereo not drawn) [Compound 947304] | ≤ 100 nM | 100 to 1000 nM |  |  |  |  |
| CC1(C)CC(=O)C2=C(C1)Nc1n[nH]cc1C21COC2(CN(C(=O)CC3CCCCC3)C2)C1 (stereo not drawn) [Compound 947305] | ≤ 100 nM | ≤ 100 nM |  |  |  |  |
| CC1(C)CC(=O)C2=C(C1)Nc1n[nH]cc1C21COC2(CN(C(=O)Cc3ccccc3)C2)C1 (stereo not drawn) [Compound 947306] | ≤ 100 nM | ≤ 100 nM | ≤ 100 nM | ≤ 100 nM |  |  |
| CC1(C)CC(=O)C2=C(C1)Nc1n[nH]cc1C21COC2(CN(C(=O)C3(C)CCCC3)C2)C1 (stereo not drawn) [Compound 947307] | ≤ 100 nM | ≤ 100 nM |  |  |  |  |
| CC1(C)CC(=O)C2=C(C1)Nc1n[nH]cc1C21COC2(CN(C(=O)C3CCCCCC3)C2)C1 (stereo not drawn) [Compound 947308] | ≤ 100 nM | 100 to 1000 nM |  |  |  |  |
| CC[C@]1(c2cccc(-c3ccncc3C)c2)C2=C(CC(C)(C)CC2=O)Nc2n[nH]c(C(F)(F)F)c21 [Compound 947324] |  |  | ≤ 100 nM | ≤ 100 nM | ≤ 100 nM | ≤ 100 nM |
| CC[C@]1(c2cccc(-c3ccncc3F)c2)C2=C(CC(C)(C)CC2=O)Nc2n[nH]c(C(F)(F)F)c21 [Compound 947326] |  |  | ≤ 100 nM | ≤ 100 nM | ≤ 100 nM | ≤ 100 nM |
| CCC1(c2cccc(-c3ccnc(C)c3C)c2)C2=C(CC(C)(C)CC2=O)Nc2n[nH]c(C(F)(F)F)c21 (stereo not drawn) [Compound 947328] |  |  |  |  | 100 to 1000 nM | 100 to 1000 nM |
| CCC1(c2cccc(-c3ccnc(C)c3C)c2)C2=C(CC(C)(C)CC2=O)Nc2n[nH]c(C(F)(F)F)c21 (stereo not drawn) [Compound 947329] |  |  | ≤ 100 nM | ≤ 100 nM | ≤ 100 nM | ≤ 100 nM |
| CCC1(c2cccc(C(F)(F)F)c2)C2=C(CCN(c3ccc(OC)cc3)C2=O)Nc2n[nH]cc21 (stereo not drawn) [Compound 947332] | ≤ 100 nM | 100 to 1000 nM |  |  |  |  |
| CCN(c1cccc(C2(CC)C3=C(CC(C)(C)CC3=O)Nc3n[nH]cc32)c1)c1ncccn1 (stereo not drawn) [Compound 947333] |  |  | ≤ 100 nM | 100 to 1000 nM | ≤ 100 nM | ≤ 100 nM |
| CCN(c1cccc([C@@]2(CC)C3=C(CC(C)(C)CC3=O)Nc3n[nH]cc32)c1)c1ncccn1 [Compound 947334] |  |  |  |  | 100 to 1000 nM | 1000 to 5000 nM |
| CCC1(c2cccc(-c3cc(C)ncc3C)c2)C2=C(CC(C)(C)CC2=O)Nc2n[nH]c(C(F)(F)F)c21 (stereo not drawn) [Compound 947363] |  |  | ≤ 100 nM | 100 to 1000 nM | ≤ 100 nM | ≤ 100 nM |
| CCC1(c2cccc(-c3ccnn3C)c2)C2=C(CC(C)(C)CC2=O)Nc2n[nH]c(C(F)(F)F)c21 (stereo not drawn) [Compound 947365] |  |  |  |  | 100 to 1000 nM | 1000 to 5000 nM |
| CC[C@@]1(c2cccc(-c3ccnn3C)c2)C2=C(CC(C)(C)CC2=O)Nc2n[nH]c(C(F)(F)F)c21 [Compound 947372] |  |  | ≤ 100 nM | ≤ 100 nM | ≤ 100 nM | ≤ 100 nM |
| CC[C@]1(c2cccc(-c3cc(C)nn3C)c2)C2=C(CC(C)(C)CC2=O)Nc2n[nH]c(C(F)(F)F)c21 [Compound 947383] |  |  |  |  | 1000 to 5000 nM | > 5000 nM |
| CCC1(c2cccc(S(C)(=O)=O)c2)C2=C(CC(C)(C)NC2=O)Nc2n[nH]c(C)c21 (stereo not drawn) [Compound 947395] | ≤ 100 nM | ≤ 100 nM | 100 to 1000 nM | 100 to 1000 nM |  |  |
| CCC1(c2cccc(-c3cnnn3C(C)C)c2)C2=C(CC(C)(C)CC2=O)Nc2n[nH]cc21 (stereo not drawn) [Compound 947397] |  |  |  |  | ≤ 100 nM | ≤ 100 nM |
| CCC1(c2cccc(-c3cnnn3C)c2)C2=C(CC(C)(C)CC2=O)Nc2n[nH]cc21 (stereo not drawn) [Compound 947398] |  |  |  |  | ≤ 100 nM | ≤ 100 nM |
